Results taken from US8044103B2, “Cyclic dipeptides and azetidinone compounds and their use in treating CNS injury and neurodegenerative disorders” (Georgetown University, priority 1998, dated 2011).

Legend:
[1] = system: mice following controlled cortical impact injury (CCI); assay: Morris watermaze, working memory version, after controlled cortical impact injury; type: in vivo, Male C57Bl/6 mice; settings: 1.0 mg/kg at 30 min following CCI; day 24 after trauma; p<0.05
Experimental: FIG. 7 provides a graph illustrating the latency of finding a hidden platform in a working memory version of the Morris watermaze for uninjured control mice (sham+saline) and mice treated with normal saline (CCI+saline) or 1.0 mg/kg Compound 2a (CCI+Compound 2a) at 30 min. following controlled cortical injury (CCI). Filled bars (▪) represent the first of two consecutive trials; unfilled bars ( ? ) represent the second of two consecutive trials. Results are expressed as daily means±SEM for each group over four trial pairs. * indicates p<0.05 with respect to uninjured controls (sham+saline); # indicates p<0.05 with respect to injured saline-treated controls (CCI+saline).
Conscious mice were placed in a mouse restrainer and injected via the lateral tail vein with either normal saline (injured controls; n=6), 1 mg/kg Compound 2a (n=8), Compound 10b (n=6), Compound 11b (n=6) or Compound 14c (n=6) at 30 minutes following controlled cortical impact injury (CCI). The values for n represents the number of mice in the particular treatment group. The investigator was blinded to drug treatment both at the time of surgery and for neurological and behavioral scoring.
To determine the effect of CCI on working memory, the daily mean latency (+SEM) to find the goal platform on both trials was calculated for each group. […]

[2] = system: rats following moderate fluid percussion injury; assay: Mortality after moderate fluid percussion injury; type: in vivo, Male Sprague-Dawley rats; settings: 1 mg/kg i.v. 30 min following moderate fluid percussion injury; died before the end of the study; saline 21.4% and 37.5%
Experimental: Rats were anesthetized with sodium pentobarbital (70 mg/kg i.p.), intubated, and implanted with femoral venous and arterial catheters. Brain temperature was assessed indirectly through a thermister in the temporalis muscle. Body temperature was maintained through a feedback-controlled heating blanket. Blood pressure was continuously monitored, and arterial blood gases analyzed periodically. After the animal was placed in a stereotaxic frame, the scalp and temporal muscle were reflected, and a small craniotomy (5 mm) located midway between the lambda and bregma sutures over the left parietal cortex allowed insertion of a Leur-Loc that is cemented in place. The fluid-percussion head injury device, manufactured by the Medical College of Virginia, consists of a plexiglass cylindrical reservoir filled with isotonic saline; one end includes a transducer that is mounted and connected to a 5 mm tube that attaches through a male Leur-Loc fitting to the female Leur-Loc cemented at the time of surgery. A pendulum strikes a piston at the opposite end of the device, producing a pressure pulse of approximately 22 msec duration, leading to deformation of underlying brain. The degree of injury is related to the pressure pulse, expressed in atmospheres (atm): 2.6 atm in our laboratory produces a moderate injury with regard to neurological and histological deficit. Sham (control) animals undergo anesthesia and surgery without fluid percussion brain injury. […]
Continuous variables compared across groups were examined using an analysis of variance (ANOVA) followed by Bonferroni correction (rightin reflex). Continuous variables subjected to repeated measurements over a period of time (cardiovascular and core temperature measurements) were analyzed using a repeated measurements ANOVA followed by Tukey's pairwise comparison at each time point. Ordinal measurements (composite neurological scores) were evaluated using the non-parametric Kruskal-Wallis ANOVA with individual, non-parametric Mann-Whitney U-tests. […]

O=C1NC2(CCCCC2)C(=O)N2CCC[C@@H]12 [Compound 2a, Cyclo[(1-Amino-1-Cyclohexane-Carboxylic Acid)-Pro]]
latency to goal platform, first of trial pair (reference memory), versus untreated injured animals [1]: significantly improved | latency to goal platform, second of trial pair (working memory), versus untreated injured animals [1]: significantly improved | mortality rate [2]: 25%
